Reference: US20040110265A1, “Recovery of enzyme activity from enveloped viruses” (priority 2001, published 2004)

Experiments:
FIV RT = conditions: in foetal calf serum, 60 minutes at 22° C.
Description: (§1) Recombinant wild type HIV 1 RT (▪), Recombinant RT from a Nevirapine resistant HIV 1 mutant (Y181C) (⋄), Jaagsiekte virus (JSV) RT from a sheep lung cancer (▾), […] (FIV) RT (∘), Bovine Leukaemia virus (BLV) RT (♦) and Porcine Endogenous Retrovirus (PERV) RT (●)derived from cell culture were dilute in heat inactivated foetal calf serum. The different virus enzyme preparations and an EDTA plasma sample from a healthy blood donor (□) were incubated with indicated thimerosal concentration at room temperature (22° C.) for 60 minutes. All the samples were diluted 100 fold in an RT assay compatible buffer and the residual RT activity in each sample was then determined. Three RT assays, each adapted to the type of RT measured were used: HIV 1, JSV, and FIV RTs were measured with Cavidi® HS kit Lenti RT BLV RT with Cavidi® HS kit HTLV RT and PERV and human plasma RT with Cavidi® HS kit Mn^2+ RT.

[1] = target: Jaagsiekte virus (JSV) RT (Sheep pulmonary adenomatosis virus, UniProt P31623); conditions: in foetal calf serum, 60 minutes at 22° C.
Jaagsiekte virus (JSV) RT, sequence (P31623 866-1446 limits assumed): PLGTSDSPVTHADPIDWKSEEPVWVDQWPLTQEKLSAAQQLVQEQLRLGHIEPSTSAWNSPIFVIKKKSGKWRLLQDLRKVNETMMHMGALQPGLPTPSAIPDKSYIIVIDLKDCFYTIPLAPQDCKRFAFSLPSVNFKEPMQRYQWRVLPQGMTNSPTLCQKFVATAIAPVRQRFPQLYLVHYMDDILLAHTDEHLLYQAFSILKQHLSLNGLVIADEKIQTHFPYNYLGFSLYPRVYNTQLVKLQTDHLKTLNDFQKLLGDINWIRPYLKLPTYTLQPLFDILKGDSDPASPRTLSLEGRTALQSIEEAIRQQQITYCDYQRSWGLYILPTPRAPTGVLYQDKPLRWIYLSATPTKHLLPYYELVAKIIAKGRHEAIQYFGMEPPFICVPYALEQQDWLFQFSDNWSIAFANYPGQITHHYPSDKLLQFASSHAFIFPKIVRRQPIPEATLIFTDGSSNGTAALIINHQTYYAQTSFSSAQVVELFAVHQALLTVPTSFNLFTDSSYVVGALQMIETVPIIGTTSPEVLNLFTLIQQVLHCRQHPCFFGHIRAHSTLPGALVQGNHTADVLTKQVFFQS
Description: as §1

[2] = target: Recombinant RT from a Nevirapine resistant HIV 1 mutant (Y181C) (Human immunodeficiency virus type 1 group M subtype B, UniProt P04585, Y768C); conditions: in foetal calf serum, 60 minutes at 22° C.
Description: as §1

[3] = target: Recombinant wild type HIV 1 RT (Human immunodeficiency virus type 1 group M subtype B, UniProt P04585); conditions: in foetal calf serum, 60 minutes at 22° C.
Description: as §1

human plasma RT = experiment: Selective destruction of endogenous RT activity in plasma, protocol I; assay type: biochemical; conditions: EDTA plasma with disrupted lymphocytes, 1 hour at room temperature
Description: EDTA plasma with disrupted lymphocytes from a healthy blood donor and FIV diluted in inactivated foetal calf serum (totally devoid of plasma RT activity) were incubated for 1 hour at room temperature with indicated concentration of: A) 5,5′-dithiobis-(2-nitrobensoic acid), B) thimerosal. The samples were separated according to “Protocol for determination of retroviral RT from material which contains RT blocking antibodies”. The RT activities recovered were determined with an RT assay (Cavidi HS-kit Lenti RT).

human plasma polymerase = experiment: Resurrection of plasma polymerase activity after treatment with cysteine-modifying agents; assay type: biochemical
Description: A set of human plasma samples (60% plasma in water) was first incubated with 3 mM of indicated cysteine-modifying substance or water (as control) at room temperature for 1 hour. Serial dilutions of five potentially reactivating substances were then added and the samples were incubated for another hour. Each sample was finally diluted 1:20 and residual RT activity was determined with Cavidi® HS kit Lenti RT. The total reduction in substance concentration between sample incubation and RT assay was 200 times. The RT activities recovered were recalculated into percent of the activity of a control consisting of plasma incubated in absence of additions during both incubation steps.

## C[CH2][Hg][S]c1ccccc1C(=O)[O-].[Na+] [Thimerosal]
FIV RT
  Sensitivity of enzyme to thimerosal treatment: most sensitive
[1]
  Sensitivity of enzyme to thimerosal treatment: totally resistant
[2]
  Sensitivity of enzyme to thimerosal treatment: most sensitive
[3]
  Sensitivity of enzyme to thimerosal treatment: totally resistant
Human plasma RT
  Concentration that totally eliminated the human plasma RT activity: > 3 mM
Human plasma polymerase; 3 mM agent, then reactivating substances
  Conditions required to reactivate polymerase activity treated with the agent: quite easily reactivated
Human plasma polymerase; 3 mM destroying agent first, 1.1 mM DTT
  Polymerase activity after second incubation with DTT (% of control): 84%
Human plasma polymerase; 3 mM destroying agent first, 1.1 mM MSA
  Polymerase activity after second incubation with MSA (% of control): 17%
Human plasma polymerase; 3 mM destroying agent first, 1.1 mM cysteamine
  Polymerase activity after second incubation with cysteamine (% of control): 0%
Human plasma polymerase; 3 mM destroying agent first, 1.1 mM cysteine
  Polymerase activity after second incubation with cysteine (% of control): 4%
Human plasma polymerase; 3 mM destroying agent first, 1.1 mM glutathione
  Polymerase activity after second incubation with glutathione (% of control): 12%
Human plasma polymerase; 3 mM destroying agent first, 3.3 mM DTT
  Polymerase activity after second incubation with DTT (% of control): 248%
Human plasma polymerase; 3 mM destroying agent first, 3.3 mM MSA
  Polymerase activity after second incubation with MSA (% of control): 19%
Human plasma polymerase; 3 mM destroying agent first, 3.3 mM cysteamine
  Polymerase activity after second incubation with cysteamine (% of control): 0%
Human plasma polymerase; 3 mM destroying agent first, 3.3 mM cysteine
  Polymerase activity after second incubation with cysteine (% of control): 14%
Human plasma polymerase; 3 mM destroying agent first, 3.3 mM glutathione
  Polymerase activity after second incubation with glutathione (% of control): 21%
Human plasma polymerase; 3 mM destroying agent first, 10 mM DTT
  Polymerase activity after second incubation with DTT (% of control): 377%
Human plasma polymerase; 3 mM destroying agent first, 10 mM MSA
  Polymerase activity after second incubation with MSA (% of control): 7.3%
Human plasma polymerase; 3 mM destroying agent first, 10 mM cysteamine
  Polymerase activity after second incubation with cysteamine (% of control): 2%
Human plasma polymerase; 3 mM destroying agent first, 10 mM cysteine
  Polymerase activity after second incubation with cysteine (% of control): 37%
Human plasma polymerase; 3 mM destroying agent first, 10 mM glutathione
  Polymerase activity after second incubation with glutathione (% of control): 37%
Human plasma polymerase; 3 mM destroying agent first, 30 mM DTT
  Polymerase activity after second incubation with DTT (% of control): 448%
Human plasma polymerase; 3 mM destroying agent first, 30 mM MSA
  Polymerase activity after second incubation with MSA (% of control): 3.4%
Human plasma polymerase; 3 mM destroying agent first, 30 mM cysteamine
  Polymerase activity after second incubation with cysteamine (% of control): 1%
Human plasma polymerase; 3 mM destroying agent first, 30 mM cysteine
  Polymerase activity after second incubation with cysteine (% of control): 68%
Human plasma polymerase; 3 mM destroying agent first, 30 mM glutathione
  Polymerase activity after second incubation with glutathione (% of control): 7%
Human plasma polymerase; 3 mM destroying agent first, water in second incubation
  Polymerase activity after second incubation with water (% of control): 0%
